Assay: recombinant UMI read abundance after kanamycin selection (control-corrected) (log10(CPM+1)); higher = more efficient recombination; extreme values may be limits of the assay; sequences stand for … in AGTGCAGAGAAAATCGGCCAGTTTTCTCTGCCTGCAGTCCGCATGCCGTGGGACCCCTTGGGTTCTAACCTGTTGCCTAGATTTATGCAGCGGACTGCCTTTCTCCCAAAGTGATAAACCGG…AGGTTGGTTTCACT; site = the 11-nt donor
How it was run: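 In Escherichia coli, a pool of donor and donor-binding-loop pairs, each with a 12-nt UMI, was tested for the IS621 bridge recombinase. Plating was on IPTG (0.07 mM) plus kanamycin, or without selection, in two replicates. Recombinant UMIs were amplified by PCR across the donor–target junction and sequenced, and counts were reported as log10(CPM+1) after averaging and control-derived scaling.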
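Note: IS621 bridge recombinase in Escherichia coli cells against a fixed T5 target plasmid.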

Row | Sequence | recombinant UMI read abundance (log10)
1 | CTGCGAACATGGACCGGTTTTCCCGGTAATCCGTATTTGCA (site CTGCGAACTTG) | 1.38
2 | TATTATCCATGGACCGGTTTTCCCGGTAATCCGTATTTGCT (site AATTATCCTAG) | 0.494
3 | ACCCGTCCATGGACCGGTTTTCCCGGTAATCCGTATTTGAT (site ACCCGTCCTAT) | 0.224
4 | ACAGTATCATGGACCGGTTTTCCCGGTAATCCGTATTTGCA (site ACAGTATCTAG) | 1.81
5 | GATTATCCATGGACCGGTTTTCCCGGTAATCCGTATTTGCT (site GTTTATCCTAG) | 0
6 | ACCTAGACATGGACCGGTTTTCCCGGTAATCCGTATTTGGG (site ACCTAGACTCC) | 0.0334
7 | GAGAATGCATGGACCGGTTTTCCCGGTAATCCGTATTTGCT (site GAGAATGCTAG) | 2.16
8 | CAATTGACATGGACCGGTTTTCCCGGTAATCCGTATTTGAA (site CAATTGACTTT) | 2.17
9 | TGCGGGCCATGGACCGGTTTTCCCGGTAATCCGTATTTGCT (site TGCGGGCCTAG) | 0
10 | GGAGTGCCATGGACCGGTTTTCCCGGTAATCCGTATTTGGT (site GGAGTGGCTAC) | 0.00926
11 | AGGACTACATGGACCGGTTTTCCCGGTAATCCGTATTTGAC (site AGGGCTACTGT) | 0
12 | ACAGACACATGGACCGGTTTTCCCGGTAATCCGTATTTGTC (site ACAGACACTGA) | 2.7
13 | CCCTTAGCATGGACCGGTTTTCCCGGTAATCCGTATTTGTG (site CCGTTAGCTCA) | 0.00331
14 | CAGGGCACATGGACCGGTTTTCCCGGTAATCCGTATTTGGA (site CAGGGCACTTC) | 0.471
15 | ACAGTATCATGGACCGGTTTTCCCGGTAATCCGTATTTGCA (site CCAGTGTCTTG) | 1.8
16 | ATGTAGGCATGGACCGGTTTTCCCGGTAATCCGTATTTGGT (site ATGTAGGCTCC) | 0.0125
17 | CCCTTCTCATGGACCGGTTTTCCCGGTAATCCGTATTTGGG (site CCCTCCTCTCC) | 0.0129
18 | TGTTCACCATGGACCGGTTTTCCCGGTAATCCGTATTTGAC (site TGTCCACCTGT) | 0
19 | ACCTAGACATGGACCGGTTTTCCCGGTAATCCGTATTTGGG (site ACCCAGACTCC) | 0.00611
20 | ACAGTACCATGGACCGGTTTTCCCGGTAATCCGTATTTGAA (site ACAGTATCTTG) | 0
21 | GGCGCACCATGGACCGGTTTTCCCGGTAATCCGTATTTGCA (site GGCGCACCTTG) | 0
22 | AAGAATACATGGACCGGTTTTCCCGGTAATCCGTATTTGCA (site TAGAATACTTG) | 1.7
23 | GTAGTCGCATGGACCGGTTTTCCCGGTAATCCGTATTTGCG (site GTAATCGCTCG) | 1.31
24 | ACAGCTTCATGGACCGGTTTTCCCGGTAATCCGTATTTGCA (site ACAGTATCTTG) | 2.16
25 | AATGTGTCATGGACCGGTTTTCCCGGTAATCCGTATTTGTC (site AATGTGTCTGG) | 1.29

Row | Sequence | recombinant UMI read abundance (log10)
26 | ACCGTCTCATGGACCGGTTTTCCCGGTAATCCGTATTTGCA (site ACCGTCTCTTG) | 2.85
27 | GTTGGAACATGGACCGGTTTTCCCGGTAATCCGTATTTGTT (site GTTGGAACTAA) | 2
28 | TCAGAGTCATGGACCGGTTTTCCCGGTAATCCGTATTTGCG (site TCAGAGTCTCG) | 3
29 | TCCACAGCATGGACCGGTTTTCCCGGTAATCCGTATTTGCG (site TCCACAGCTCG) | 0
30 | CTTCTCTCATGGACCGGTTTTCCCGGTAATCCGTATTTGCT (site CTTCTCTCTAG) | 2.48
31 | GTGCTCACATGGACCGGTTTTCCCGGTAATCCGTATTTGAT (site GTGCTCACTAT) | 1.9
32 | CGATCAACATGGACCGGTTTTCCCGGTAATCCGTATTTGCT (site CGATCAGCTAG) | 0
33 | GTTACTGCATGGACCGGTTTTCCCGGTAATCCGTATTTGCC (site GTTACTGCTGG) | 1.83
34 | GTGGGGGCATGGACCGGTTTTCCCGGTAATCCGTATTTGTG (site GTGGCGGCTCA) | 0.0124
35 | AAATATGCATGGACCGGTTTTCCCGGTAATCCGTATTTGGA (site AATTATGCTTC) | 0.905
36 | GAGCGGACATGGACCGGTTTTCCCGGTAATCCGTATTTGGC (site GAGCGGACTGC) | 2.85
37 | GATTTATCATGGACCGGTTTTCCCGGTAATCCGTATTTGAA (site GATTTATCTTT) | 1.64
38 | TCAGAGCCATGGACCGGTTTTCCCGGTAATCCGTATTTGCG (site TCAGAGCCTCG) | 0.295
39 | CCCATATCATGGACCGGTTTTCCCGGTAATCCGTATTTGTC (site CCCATAACTGA) | 0
40 | TCCGGGCCATGGACCGGTTTTCCCGGTAATCCGTATTTGGG (site TCCGGGCCTCC) | 0.0269
41 | CCGTTTCCATGGACCGGTTTTCCCGGTAATCCGTATTTGCT (site CCGTTTTCTAG) | 0
42 | TGGTGCCCATGGACCGGTTTTCCCGGTAATCCGTATTTGGT (site TGGTGCCCTAC) | 0.00779
43 | ATCCAAGCATGGACCGGTTTTCCCGGTAATCCGTATTTGGG (site ATCCAAGCTCT) | 0.00791
44 | CGGTATACATGGACCGGTTTTCCCGGTAATCCGTATTTGTT (site CGGTATACTAA) | 1.62
45 | TTATTCCCATGGACCGGTTTTCCCGGTAATCCGTATTTGCA (site TTATTCCCTTG) | 0
46 | CGAGTACCATGGACCGGTTTTCCCGGTAATCCGTATTTGAC (site CGAGTACCTGT) | 0
47 | GCCAACTCATGGACCGGTTTTCCCGGTAATCCGTATTTGTT (site GCCAACTCTAA) | 1.65
48 | ACCTCGACATGGACCGGTTTTCCCGGTAATCCGTATTTGGG (site ACCTTGACTCC) | 0
49 | AGCCTTTCATGGACCGGTTTTCCCGGTAATCCGTATTTGAC (site AGCCTTTCTGG) | 0
50 | ATGCCCGCATGGACCGGTTTTCCCGGTAATCCGTATTTGCA (site ATGCCCGCTTG) | 2.01

Row | Sequence | recombinant UMI read abundance (log10)
51 | CGGAATCCATGGACCGGTTTTCCCGGTAATCCGTATTTGCT (site CGGAATCCTAT) | 0.767
52 | TCCAGCGCATGGACCGGTTTTCCCGGTAATCCGTATTTGCG (site TCCATCGCTCG) | 0.00909
53 | ACTAGCACATGGACCGGTTTTCCCGGTAATCCGTATTTGAG (site ACTAGCACTCT) | 1.48
54 | ATAGTATCATGGACCGGTTTTCCCGGTAATCCGTATTTGTA (site ACAGTATCTTG) | 0.029
55 | TACTTTACATGGACCGGTTTTCCCGGTAATCCGTATTTGCT (site TACTTCACTAG) | 1.36
56 | CAAGCGCCATGGACCGGTTTTCCCGGTAATCCGTATTTGCG (site CAAGCGCCTCA) | 0.0343
57 | CACTACTCATGGACCGGTTTTCCCGGTAATCCGTATTTGCC (site CACTGCTCTGG) | 0.737
58 | TATTTGGCATGGACCGGTTTTCCCGGTAATCCGTATTTGAG (site TATTTGGCTCA) | 0.0138
59 | GAAGATTCATGGACCGGTTTTCCCGGTAATCCGTATTTGTT (site GAAGATGCTAA) | 0.0075
60 | GTCAAACCATGGACCGGTTTTCCCGGTAATCCGTATTTGGT (site GCCAAACCTAC) | 0
61 | GCGATGCCATGGACCGGTTTTCCCGGTAATCCGTATTTGGG (site GCGAGGCCTCC) | 0.0186
62 | GCAACGCCATGGACCGGTTTTCCCGGTAATCCGTATTTGTA (site GCAACGCCTTA) | 0.399
63 | GGCAATCCATGGACCGGTTTTCCCGGTAATCCGTATTTGAA (site GGCAATCCTTA) | 0.00549
64 | GAATGTCCATGGACCGGTTTTCCCGGTAATCCGTATTTGCA (site GAATGGCCTTG) | 0
65 | CTCGAATCATGGACCGGTTTTCCCGGTAATCCGTATTTGCA (site CTCGAATCTTG) | 2.42
66 | AGGACTACATGGACCGGTTTTCCCGGTAATCCGTATTTGAC (site GGGACTACTGT) | 0
67 | AGCCTAGCATGGACCGGTTTTCCCGGTAATCCGTATTTGTT (site AGCCTAGCTAG) | 0
68 | CGACGACCATGGACCGGTTTTCCCGGTAATCCGTATTTGGG (site CGAAGACCTCC) | 0.0167
69 | CCCATATCATGGACCGGTTTTCCCGGTAATCCGTATTTGTC (site CGCATATCTGA) | 0
70 | ATGGTCGCATGGACCGGTTTTCCCGGTAATCCGTATTTGAC (site ATGGTCGCTGT) | 3.13
71 | GTTGCGGCATGGACCGGTTTTCCCGGTAATCCGTATTTGCT (site TTTGCGGCTAG) | 0.731
72 | GTTCGAACATGGACCGGTTTTCCCGGTAATCCGTATTTGGC (site GTTAGAACTGC) | 0
73 | CTTCCGCCATGGACCGGTTTTCCCGGTAATCCGTATTTGAG (site CTTCCGCCTCT) | 0.0295
74 | CCACTTGCATGGACCGGTTTTCCCGGTAATCCGTATTTGTG (site CCACTTGCTCA) | 0.358
75 | CCTTTGCCATGGACCGGTTTTCCCGGTAATCCGTATTTGTG (site CCTTTGCCTCA) | 0.00549

— the supplement of paper PMC11208160
